How the values were obtained:
[1] = 101.33 kPa, Liquid; for mass density: Pycnometric method; for speed of sound: multifrequency ultrasonic interferometer
[2] = xn = mol fraction of the nth substance listed; conditions: 101 kPa, Liquid; for mass density: Pycnometric method; for speed of sound: multifrequency ultrasonic interferometer

CN(C)CCO [2-(N,N-dimethylamino)ethanol]
[1]
Conditions	mass density [kg/m3]	speed of sound [m/s]
298.15 K	883.34	1344.4
308.15 K	874.99	1309.1
318.15 K	866.37	1274.1

CN(C)CCO [2-(N,N-dimethylamino)ethanol] + CCO
[2]
Conditions	mass density, 298.15 K [kg/m3]	mass density, 308.15 K [kg/m3]	mass density, 318.15 K [kg/m3]	speed of sound, 298.15 K [m/s]	speed of sound, 308.15 K [m/s]	speed of sound, 318.15 K [m/s]
x1 = 0.0929	803.31	795.34	787.23	1172.7	1141.5	1109.4
x1 = 0.1972	820.2	812.45	804.46	1206.4	1176.1	1144.1
x1 = 0.3005	834.5	826.62	818.61	1236.8	1207.1	1176.3
x1 = 0.4012	846.38	838.41	830.22	1264.9	1234.4	1205.1
x1 = 0.5051	856.62	848.64	840.29	1290.4	1259.8	1231.3
x1 = 0.6098	864.64	856.77	848.47	1309.3	1279.1	1251
x1 = 0.7086	871.01	863.28	854.97	1321	1292	1264.2
x1 = 0.8031	875.81	868.08	859.92	1329.8	1300.4	1271.8
x1 = 0.9036	879.78	871.92	863.76	1336.4	1304.5	1273.3
x1 = 1	883.34	874.99	866.37	1344.4	1309.1	1274.1

CN(C)CCO [2-(N,N-dimethylamino)ethanol] + CO
[2]
Conditions	mass density, 298.15 K [kg/m3]	mass density, 308.15 K [kg/m3]	mass density, 318.15 K [kg/m3]	speed of sound, 298.15 K [m/s]	speed of sound, 308.15 K [m/s]	speed of sound, 318.15 K [m/s]
x1 = 0.0971	814.11	806.11	797.9	1152.4	1126.7	1101.6
x1 = 0.1983	835.29	827.54	819.51	1204.7	1180.5	1156.2
x1 = 0.2962	850.65	842.65	834.22	1249.8	1225.3	1199.5
x1 = 0.4039	862.04	853.81	845.26	1290.2	1265.5	1238.9
x1 = 0.502	868.4	860.4	852.01	1312	1288.1	1261.3
x1 = 0.607	873.13	865.13	856.89	1322.4	1299.3	1272.9
x1 = 0.7075	876.61	868.67	860.58	1326.9	1301.3	1273.6
x1 = 0.7999	879.06	871.15	862.98	1330.6	1303.1	1273.9
x1 = 0.9015	881.19	873.28	865.23	1335	1304.2	1274
x1 = 1	883.34	874.99	866.37	1344.4	1309.1	1274.1

CCO [ethanol]
[1]
Conditions	mass density [kg/m3]	speed of sound [m/s]
298.15 K	785.48	1143.2
308.15 K	776.82	1109.6
318.15 K	768.08	1075.5

CCO [ethanol] + CN(C)CCO
[2], x2 = 0
Conditions	mass density [kg/m3]	speed of sound [m/s]
298.15 K	785.48	1143.2
308.15 K	776.82	1109.6
318.15 K	768.08	1075.5

CO [methanol]
[1]
Conditions	mass density [kg/m3]	speed of sound [m/s]
298.15 K	786.74	1100.7
308.15 K	777.45	1068.2
318.15 K	768.01	1037

CO [methanol] + CN(C)CCO
[2], x2 = 0
Conditions	mass density [kg/m3]	speed of sound [m/s]
298.15 K	786.74	1100.7
308.15 K	777.45	1068.2
318.15 K	768.01	1037

Reference: the NIST ThermoML archive (doi:10.1016/j.tca.2014.03.038)
